Source: publication PMC2073845, “Tracer Studies of Potential Radiosensitizing Agents” (British Journal of Cancer, 1956)
Where two headings read alike, the source gives them in different places.

Assays:
[1] = Differential absorption ratio (D.A.R.) of organs of rats carrying a Walker carcinoma after injection of the radio-labelled compound
From the text: (§1) OPO3Na2 OPO3Na2 OP03H2 ICOH3 CH3 CH3 131I I 82Br CH3 1311 OPO3Na2 OPO3Na2 OP03H2 I II III METHODS AND MATERIALS Counting.-y-emission from the halogens was the basis of detection. The simple technique of placing samples of the organs under a shielded counter could not be used since variations in the thickness of the organs would vary the sample- counter distance, leading to considerable counting errors. This type of error was reduced by locating the sample on a thin aluminium tray midway between two G-10-Pb glass-covered Geiger-Muller tubes in copper sheaths placed 10 cm. apart in a castle of 2 inch lead and connected in parallel to the same scaler. The 50 D. H. MARRIAN AND D. R. MAXWELL sensitivity of the arrangement was about 9000 c.p.m./,tC 52Br. Samples and backgrounds were counted to a standard error of 5 per cent or less. […] The hydroscopic salt (II) was dissolved in 0 9 per cent saline and the concentration determined by ultraviolet spectroscopy (absorption maxima at 232m,u. (M = 70,000) and 290 m,u. (M = 5,800) in 0-01N- hydrochloric acid). […] The purity of the solution was determined by paper electrophoresis at pH 7 (Markham and Smith, 1952). This clearly separated the organic compound from iodide ion, the former being detected by ultraviolet photography and the latter by spraying with starch solution and exposure to chlorine vapour. […]

[2] = Radioactivity in blood, plasma and urine as percentage of injected dose, tumour-bearing rats
From the text: OPO3Na2 OPO3Na2 OP03H2 ICOH3 CH3 CH3 131I I 82Br CH3 1311 OPO3Na2 OPO3Na2 OP03H2 I II III METHODS AND MATERIALS Counting.-y-emission from the halogens was the basis of detection. The simple technique of placing samples of the organs under a shielded counter could not be used since variations in the thickness of the organs would vary the sample- counter distance, leading to considerable counting errors. This type of error was reduced by locating the sample on a thin aluminium tray midway between two G-10-Pb glass-covered Geiger-Muller tubes in copper sheaths placed 10 cm. apart in a castle of 2 inch lead and connected in parallel to the same scaler. The 50 D. H. MARRIAN AND D. R. MAXWELL sensitivity of the arrangement was about 9000 c.p.m./,tC 52Br. Samples and backgrounds were counted to a standard error of 5 per cent or less. […] The hydroscopic salt (II) was dissolved in 0 9 per cent saline and the concentration determined by ultraviolet spectroscopy (absorption maxima at 232m,u. (M = 70,000) and 290 m,u. (M = 5,800) in 0-01N- hydrochloric acid). […] Exposure to chlorine vapour caused red spots of bromofluoroscein to appear on a yellow background. […] The iodinated compound (III), was dissolved in 0 9 per cent saline and neutralised by addition of sodium hydroxide solution. The purity of the solution was determined by paper electrophoresis at pH 7 (Markham and Smith, 1952). This clearly separated the organic compound from iodide ion, the former being detected by ultraviolet photography and the latter by spraying with starch solution and exposure to chlorine vapour. […] It was dissolved in 0 9 per cent saline before injection. […] C. for 4 hours at pH 4, 6, 7 and 9 and the reaction mixtures examined by paper electrophoresis. […] The radioactivity of these planchettes when the organs were being counted was used to calculate the differential absorption ratio (D.A.R.), (Marrian and Maxwell, 1956). In most experiments with the bromo-compound, the time required to count the organ necessitated a decay correction, calculated from the known half-life of 82Br-bromine (36 ? 0*2 hours). […]

[3] = for injected compound in urine: 5 mg i.v.
From the text: OPO3Na2 OPO3Na2 OP03H2 ICOH3 CH3 CH3 131I I 82Br CH3 1311 OPO3Na2 OPO3Na2 OP03H2 I II III METHODS AND MATERIALS Counting.-y-emission from the halogens was the basis of detection. The simple technique of placing samples of the organs under a shielded counter could not be used since variations in the thickness of the organs would vary the sample- counter distance, leading to considerable counting errors. This type of error was reduced by locating the sample on a thin aluminium tray midway between two G-10-Pb glass-covered Geiger-Muller tubes in copper sheaths placed 10 cm. apart in a castle of 2 inch lead and connected in parallel to the same scaler. The 50 D. H. MARRIAN AND D. R. MAXWELL sensitivity of the arrangement was about 9000 c.p.m./,tC 52Br. Samples and backgrounds were counted to a standard error of 5 per cent or less. […] The hydroscopic salt (II) was dissolved in 0 9 per cent saline and the concentration determined by ultraviolet spectroscopy (absorption maxima at 232m,u. (M = 70,000) and 290 m,u. (M = 5,800) in 0-01N- hydrochloric acid). […] Exposure to chlorine vapour caused red spots of bromofluoroscein to appear on a yellow background. […] The iodinated compound (III), was dissolved in 0 9 per cent saline and neutralised by addition of sodium hydroxide solution. The purity of the solution was determined by paper electrophoresis at pH 7 (Markham and Smith, 1952). This clearly separated the organic compound from iodide ion, the former being detected by ultraviolet photography and the latter by spraying with starch solution and exposure to chlorine vapour. […] It was dissolved in 0 9 per cent saline before injection. […] C. for 4 hours at pH 4, 6, 7 and 9 and the reaction mixtures examined by paper electrophoresis. […] Animal experiments Rats carring a Walker carcinoma were used as previously described (Marrian and Maxwell, 1956). […] The radioactivity of these planchettes when the organs were being counted was used to calculate the differential absorption ratio (D.A.R.), (Marrian and Maxwell, 1956). In most experiments with the bromo-compound, the time required to count the organ necessitated a decay correction, calculated from the known half-life of 82Br-bromine (36 ? 0*2 hours). […] Upper curve: single counter. Lower curve: double counter. Ordinate: Percentage error in the count.

chick fibroblasts = details: cited from earlier work
[4] = parameters: method as in Mitchell, 1955; Marrian and Maxwell, 1956; details: after intravenous injection; ref Mitchell, 1955; Marrian and Maxwell, 1956; cited from earlier work
[5] = Attempted exchange reactions with ammonium 82Br-bromide in vitro; assay type: physicochemical; details: reactants in molar ratio; lower detection limit 2.0 per cent
From the text: as §1

## Cc1c([82Br])c(OP(=O)([O-])[O-])c2ccccc2c1OP(=O)([O-])[O-].[Na+].[Na+].[Na+].[Na+] [II, tetrasodium 2-methyl-3-82Br-bromo-I: 4-naphthohydroquinone diphosphate]
[1]; 1 mg i.v., only exceeded by stomach and contents
  D.A.R. of the tumour compared with other organs: consistently higher than any of the above organs
[2]; 1 mg i.v.
  plasma share of the radioactivity of the whole blood: ~67 per cent
[2]; after 30 minutes, 1 mg i.v.
  radioactivity associated with the blood: about 15 per cent of the injected dose
[2]; of a 1 mg (10.6 uC) dose, during 48 hours
  radioactivity excreted in the urine: 30-35 per cent
[3]; 6 hours after injection of 10 mg
  form of radioactivity in stomach contents (paper electrophoresis): present as bromide ion
[3]; rat given 5 mg intravenously
  form of radioactivity in urine (paper chromatography): most of the radioactivity was present as bromide ion
[3]; urine collected from 0 to 2 hours
  injected compound in urine: small amounts
[3]; urine collected from 2 to 6 hours after injection
  injected compound in urine: None of the injected compound could be detected
Chick fibroblasts; ref Friedmann, Marrian and Simon-Reuss, 1952
  antimitotic properties: established

## Cc1c(C)c(OP(=O)(O)O)c([131I])c([131I])c1OP(=O)(O)O [III, 2: 3-dimethyl-5: 6-di-1311-iodo-I: 4-benzohydroquinone diphosphate]
[1]; 10 mg
  radioactivity of the thyroid: no more radioactivity than the surrounding tissue
[3]; 10 mg, by comparison with reported iodide distribution
  form of the label half an hour after injection: much of the label derived from compound (III) is present as free iodide ion
[3]; 10 mg, first 3 hours
  iodide ion in stomach contents and urine (paper electrophoresis): contain large amounts of iodide ion
Chick fibroblasts; same test, ref Simon-Reuss, unpublished
  antimitotic properties: inactive

## Cc1cc(OP(=O)(O)O)c2ccccc2c1OP(=O)(O)O [Synkavit, tetrasodium 2-methyl-I: 4-naphthohydro-quinone diphosphate]
[4]
  accumulation in tumour tissue: can accumulate in tumour tissue for short periods

## Cc1c(Br)c(OP(=O)([O-])[O-])c2ccccc2c1OP(=O)([O-])[O-].[Na+].[Na+].[Na+].[Na+] [Tetrasodium 2-methyl-3-bromo-1 4-naphthohydroquinone diphosphate]
[5]
  exchange with ammonium 82Br-bromide: no exchange could be detected
